Test results published in publication PMC3118037 (International journal for parasitology, 2011).

Assays:
[1] = tested on: dispersed schistosome muscle fibres
[2] = tested on: dispersed schistosome muscle fibres; settings: ref Day et al., 1997; cited from earlier work

Substance | activity in isolated muscle cell assays [1] | effect on individual / dispersed schistosome muscle cells (fibres) [2]
GFVRIamide | lacked measurable activity | –
YIRF-OH | – | lack of effect
YIRFamide | – | potent myoexcitatory effect
